Consider ten compounds from US10829458B2 (Araxes Pharma LLC, priority 2015, dated 2020).

A value given as a limit tells only on which side of the number the result lay.

Data set [1] is described as follows: Whole blood stability. The class given is in vitro ADME. Conditions: 37° C., time points 0, 1, 2, 4 hr, LC/MS/MS; for half-life at 5 µM: mouse, whole blood, read-out: Whole Blood Stability (T1/2) hr. Mouse (converted). As for the experimental part: Test compounds were prepared as a 500 μM stock solution in DMSO (Adding 10 μl of 10 mM DMSO stock solution to 190 μl of 100% DMSO). Whole blood was thawed on ice. A whole blood plate was prepared by adding 460 μl of the whole blood (different species as needed) to a 96-well in ml deep well plate. The whole blood plate was preincubated at 37° C. for 10 min. 4 μl of compound solution and 396 μl of whole blood was added to the plate and mixed thoroughly. Each sample was aliquoted (30 μl) to the incubation plate (cluster tubes) and quenched at time zero with ice-cold 100% ACN, and the incubation plates were added to the 37° C. incubator (200 μl).
The time zero sample was maintained at 4° C. until centrifuged. All other samples were quench at different time points (1, 2, 4 hr), vortexed for 30 seconds and centrifuged at 3500 rpm for 15 min at 4° C. 30 μl of supernatant was added to 170 μl 0.1% FA aqueous solution and the sample was analyzes by LC/MS/MS.

The target in data set [2] is T1, KRAS G12C 1-169, his-tagged protein, GDP-loaded (Homo sapiens, UniProt P01116, G12C).
T1 construct: KRAS G12C 1-169, his-tagged protein, GDP-loaded
As to the kind of experiment: Biochemical assay: covalent modification of KRAS G12C measured by mass spectrometry (RapidFire/TOF or Q-Exactive). Conditions: covalent binding to KRAS G12C; compounds of structure (III). Put shortly:
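GDP-loaded his-tagged KRAS G12C 1-169 at 2 μM in 20 mM Hepes, 150 mM NaCl, 1 mM MgCl2 incubated at room temperature with compound (10, 30 or 100 μM final, 2% DMSO) for 30 min, 2 h or 24 h, then quenched with formic acid. Intact-protein LC-MS (RapidFire/TOF or Q-Exactive) with deconvolution quantified modified versus unmodified protein.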

For `C=CC(=O)N1CCN(c2ncnc3c(F)c(-c4c(O)cccc4F)c(Cl)cc23)[C@@H](C)C1` (atropisomer, axis not shown) [III-24, 1-((S)-4-((S)-6-chloro-8-fluoro-7-(2-fluoro-6-hydroxy-phenyl)quinazolin-4-yl)-3-methyl-piperazin-1-yl)prop-2-en-1-one], the “Whole Blood Stability (T1/2) hr. Mouse” value in data set [1] amounted to 10.4 h. In addition, the Binding % result in data set [2] is on record as “+++ (+++ indicates binding activity greater than 90%)”.
With `C=CC(=O)N1[C@H](C)CN(c2ncnc3c(F)c(-c4c(O)cccc4F)c(Cl)cc23)C[C@@H]1C` (atropisomer, axis not shown) [III-29, 1-((2S,6R)-4-((R)-6-chloro-8-fluoro-7-(2-fluoro-6-hydroxy-phenyl)quinazolin-4-yl)-2,6-dimethyl-piperazin-1-yl)prop-2-en-1-one], in data set [1], the half-life at 5 µM was 10.9 h. For the same compound, in data set [2], the Binding % result is reported as “+ (+ indicates binding activity up to 50%)”.
With `C=CC(=O)N1CCN(c2ncnc3c(F)c(-c4c(O)cccc4F)c(Cl)cc23)[C@@H](C)C1` [III-14, 1-((3S)-4-(6-chloro-8-fluoro-7-(2-fluoro-6-hydroxy-phenyl)quinazolin-4-yl)-3-methyl-piperazin-1-yl)prop-2-en-1-one], the “Whole Blood Stability (T1/2) hr. Mouse” value in data set [1] came out at 6.2 h. Moreover, in data set [2], the Binding % entry was “++ (++ indicates activity from 50% to 90%)”.
Take `C=CC(=O)N1[C@H](C)CN(c2ncnc3c(F)c(-c4c(O)cccc4F)c(Cl)cc23)C[C@@H]1C` [III-15, 1-((2S,6R)-4-(6-chloro-8-fluoro-7-(2-fluoro-6-hydroxy-phenyl)quinazolin-4-yl)-2,6-dimethyl-piperazin-1-yl)prop-2-en-1-one]: the “Whole Blood Stability (T1/2) hr. Mouse” value in data set [1] came to 11.1 h. In data set [2], the Binding % entry is on record as “++ (++ indicates activity from 50% to 90%)”.
For the compound `C=CC(=O)N1CCN(c2ncnc3c(F)c(-c4c(O)cccc4F)c(Cl)cc23)C(C)(C)C1` [III-17, 1-(4-(6-chloro-8-fluoro-7-(2-fluoro-6-hydroxy-phenyl)quinazolin-4-yl)-3,3-dimethyl-piperazin-1-yl)prop-2-en-1-one], in data set [1], the half-life at 5 µM is 12.5 h. The Binding % entry in data set [2] is recorded as “++ (++ indicates activity from 50% to 90%)”.
As to `C=CC(=O)N1[C@@H](C)CN(c2ncnc3c(F)c(-c4c(O)cccc4F)c(Cl)cc23)C[C@@H]1C` [III-18, 1-((2S,6S)-4-(6-chloro-8-fluoro-7-(2-fluoro-6-hydroxy-phenyl)quinazolin-4-yl)-2,6-dimethyl-piperazin-1-yl)prop-2-en-1-one], in data set [1], the half-life at 5 µM was 8.8 h. Also, the Binding % entry in data set [2] is “+ (+ indicates binding activity up to 50%)”.
The like results for `C=CC(=O)N1CCN(c2ncnc3c(F)c(-c4c(O)cccc4F)c(Cl)cc23)C[C@@H]1C` [III-20, 1-((2S)-4-(6-chloro-8-fluoro-7-(2-fluoro-6-hydroxy-phenyl)quinazolin-4-yl)-2-methyl-piperazin-1-yl)prop-2-en-1-one] were, in that order, 10.6 h and “++ (++ indicates activity from 50% to 90%)”.
The like results for `C=CC(=O)N1CCN(c2ncnc3c(F)c(-c4c(O)cccc4F)c(Cl)cc23)C[C@H]1C` [III-21, 1-((2R)-4-(6-chloro-8-fluoro-7-(2-fluoro-6-hydroxy-phenyl)quinazolin-4-yl)-2-methyl-piperazin-1-yl)prop-2-en-1-one] were, in that order, more than 12 h and “++ (++ indicates activity from 50% to 90%)”.
Taken in the same sequence, the figures for `C=CC(=O)N1[C@H](C)CN(c2ncnc3c(F)c(-c4c(O)cccc4F)c(Cl)cc23)C[C@H]1C` [III-22, 1-((2R,6R)-4-(6-chloro-8-fluoro-7-(2-fluoro-6-hydroxy-phenyl)quinazolin-4-yl)-2,6-dimethyl-piperazin-1-yl)prop-2-en-1-one] were more than 12 h and “+ (+ indicates binding activity up to 50%)”.
Take `C=CC(=O)N1C[C@H](C)N(c2ncnc3c(F)c(-c4c(O)cccc4F)c(Cl)cc23)[C@@H](C)C1` [III-37, 1-((3S,5S)-4-(6-chloro-8-fluoro-7-(2-fluoro-6-hydroxy-phenyl)quinazolin-4-yl)-3,5-dimethyl-piperazin-1-yl)prop-2-en-1-one]: in data set [1], the half-life at 5 µM was 9.9 h. Besides, the Binding % entry in data set [2] is “++ (++ indicates activity from 50% to 90%)”.
